The record followed here is patent US11767286B2, “Phenylpropionate compound, preparation method for same, and applications thereof” (SUZHOU PHARMAVAN CO., LTD, priority 2017, dated 2023).

Structures are written as SMILES.

The subject of data set [1] is platelet aggregation induced with a platelet activating factor. Put plainly: Maximum platelet aggregation rate of rabbits, induced with PAF. As to conditions: rabbit plasma, 4 mg/kg as printed; for inhibition at 4 mg/kg: Oryctolagus cuniculus, Platelet, n=3, read-out: Inhibiton rate on Aggregation; for Maximum Aggregation Rate: n=3. The class given is cell-based. The procedure: (§1) Effects on maximum platelet aggregation rate of rabbits: 3 Rabbits were anesthetized, and blood was collected from the heart to obtain 14 parts of plasma for each rabbit (1 ml per part of plasma). 7 Parts were induced with ADP to allow platelet aggregation, and 7 parts were induced with a platelet activating factor. After the induction, a solvent, positive control drug aspirin, and 5 samples to be trialed were separately added to the plasma, and maximum platelet aggregation rate was detected with a platelet aggregation meter. The trials were repeated 3 times, and an average was taken. Detected indicator: maximum platelet aggregation rate.
(§2) Table 4 lists results of effects of phenylpropionate compounds (4 mg/kg) on platelet aggregation rate of rabbits (n=3).

The subject of data set [2] is platelet aggregation induced with ADP. In words: Maximum platelet aggregation rate of rabbits, induced with ADP. Type of data set: cell-based. The settings on record: rabbit plasma, 4 mg/kg as printed, n=3; for inhibition at 4 mg/kg: Oryctolagus cuniculus, Platelet. How it is done: as §1, §2
The subject of data set [3] is SD rat model of focal ischemia-reperfusion. Put plainly: Pharmacodynamic (administration) time window in SD rat model of focal ischemia-reperfusion (MCAO). The class given is in vivo, SD rats. As to conditions: for Score of Symptoms of Neurological Deficits: 48 h, modified Bederson 5-point scale; for Infarction area: evaluated after 48 h, mean ± standard error. The procedure:
In this example, Compound A was measured for a pharmacodynamic time window by a method described below.
Trial method: A cerebral ischemia reperfusion model of middle cerebral artery occlusion (MCAO) was prepared by an internal carotid artery suture method. An animal was anesthetized with 10% chloral hydrate (3.6 mL/kg) and then fixed on an operating table in a supine position. Its skin was disinfected, and a midline incision was made on the neck. The right common carotid artery, external carotid artery, and internal carotid artery were separated, the vagus nerve was gently striped off, and the external carotid artery was ligated and cut. The common carotid artery was clamped at the proximal end. […] The nylon thread was advanced through the bifurcation of the common carotid artery into the internal carotid artery, and then was slowly inserted until there was slight resistance (about 20 mm from the bifurcation) to block all the blood supply to the middle cerebral artery. 2 h after cerebral ischemia, the nylon thread was gently pulled out to restore blood supply for reperfusion, and the neck skin was sutured and disinfected. The animal was put back in a cage and raised. During the modeling operation, animals with abnormal conditions due to anesthesia, surgery, etc. were excluded, and successfully modeled animals were randomly grouped. Schemes were set according to trial doses, and drug treatment was given 3 h, 4 h, and 5 h after cerebral ischemia-reperfusion. Death conditions were recorded every day after the surgery, and indicators were evaluated after 48 h. In the whole trial process, general conditions were observed, mainly including: death, coma, breathing, urine and feces traits, hair colors, mental status, vomiting and vomitus, bleeding, convulsion, spasm, etc. Abnormal animals due to unexpected factors were excluded. Finally, unblinding was conducted by a person who made blind trials.
Evaluated indicator: (1) Evaluation of symptoms of neurological deficits: The symptoms of neurological deficits were evaluated by using a modified Bederson 5-point scale. A single-blind method was used for evaluating the symptoms of neurological deficits in rats with brain trauma. That is, a trial designer marked animals in accordance with groups, and an experimenter who scored the symptoms of neurological deficits had no knowledge of how the animals were grouped. After scoring was completed, the scorer submitted scoring results for various marks to the designer, and the designer performed unblinding to obtain scores of animals in each trial group. (2) Measurement of cerebral infarction area: A method reported in the literature was used. An animal was anesthetized with 10% chloral hydrate and decapitated to collect brain. The olfactory bulb, cerebellum and lower brain stem were removed. Blood stains on the surface of the brain were rinsed with normal saline, the residual water stains on the surface were absorbed, and the brain was placed at −80° C. for 7 min. After the brain was taken out, a coronal section was immediately made at downwards and vertical to the sight intersection plane, and brain slices were made every 2 mm backwards. Brain slices were placed in a TTC (20 g/L) dye solution prepared with 0.9% normal saline, and incubated at 37° C. for 90 min. Normal brain tissues were stained deep red, and ischemic brain tissues were pale-white. After rinsed with normal saline, the brain sections were quickly arranged in order from front to back, the residual water stains on the surface were absorbed to dryness, and pictures were taken. Image analysis software was used for statistics on the pictures. Ischemic area (white region) on the right side and total area on the right side were delineated, and a percentage of the cerebral infarction area was calculated by the following formula: […]
Statistical analysis: Quantitative data is expressed as mean value±standard error. […]

In data set [4] the test system is rats with acute cerebral ischemia-reperfusion. Put plainly: Cerebral infarction area of rats with acute cerebral ischemia-reperfusion (MCAO, suture method). Type of data set: in vivo, SD rats. More on the design: Cerebral Infarction Area: unit not given here. As to conditions: n=5; for Cerebral Infarction Area: 4 mg/kg iv 2 h after reperfusion (2 h MCAO), sampled 4 h after administration; for inhibition in vivo at 4 mg/kg: Rattus norvegicus, 4 h, 4 mg/kg iv 2 h after reperfusion, vs solvent control, read-out: Percentage of Cerebral Infarction Area Reduction. The procedure: Trial method: Effects on inflammatory factors and blood viscosity of rats with acute cerebral ischemia-reperfusion: 70 Male SD rats underwent an MACO surgery by a suture method, and after the surgery, alive rats were randomly grouped (into 7 groups, the number of successful animals in each group was guaranteed to be 6 to 8). Blood perfusion was recovered 2 h after MCAO, and corresponding trial medicaments were intravenously injected 2 h after blood reperfusion. 4 hours after the administration, blood was collected and the rats were sacrificed to take out brain tissues. The brain tissues and part of the blood were centrifuged to collect serum which was detected for inflammatory factors, and part of the blood was detected for blood viscosity by using a blood viscometer. Detected indicators: cerebral infarction area; inflammatory factors IL-1β and TNF-α; and blood viscosity.
Table 1 lists results of effects of phenylpropionate compounds (4 mg/kg) on cerebral infarction area of rats with acute cerebral ischemia (n=5).

A further data set deals with SD rats. Put plainly: Acute toxicity, single-dose intravenous injection in SD rats. Type of data set: in vivo. As to conditions: for tolerance: single-dose intravenous injection (5, 10, 20 mg/kg); for toxic side effects: single-dose intravenous injection up to 20 mg/kg, observed to day 8. From the text:
In this example, Compound A and Compound C were studied for acute toxicity by a method described below.
Trial method: 30 SD rats, half male and half female, were used. The average weight was 160-200 g for female rats and 180-220 g for male rats when grouped. An individual weight should be within ±20% of the average weight. Before trial, animals were accommodated environment for at least 5 days, and healthy rats (female rats should be not pregnant) were selected as trial animals. Matter inspected during the accommodation period mainly was: whether the rats were consistent with quality indicators required in the order; inspection of general condition; and whether the weight was within the weight range required by the trial. Unqualified abnormal animals were excluded from the trial. A single dosage was injected through tail veins of rats at low, medium, or high dose. The doses were adjusted to be 5 mg/kg, 10 mg/kg, and 20 mg/kg, respectively according to blank preparation pre-trials. A control group was set in which a same volume of vehicle was intravenously injected.
The rats were observed about 0-2 h and 4-6 h after each administration. If a toxicity symptom occurs, the animal may be observed more times. (2) Gross anatomical observation: On the 8th day of the trial, all surviving rats in each group were dissected and observed, and administration sites and abnormal organs and tissues which were identified through gross anatomical observation to be potentially related to trial samples were photographed and recorded. (3) Disposal of dying animals: Status of rats and observation time were recorded, and their weights were measured. (4) Disposal of dead animals: The time of death or when a rat was found dead were recorded. The rat was measured for weight before quickly dissected for gross observation and speculated for cause of death.

[5] abbreviates: drug given 3 h after reperfusion.
[6] abbreviates: drug given 4 h after reperfusion.
Setting [7] is: drug given 5 h after reperfusion.

Turning to `COc1cc(CCC(=O)O[C@H]2C[C@H]3CC[C@]2(C)C3(C)C)cc(F)c1O` [Compound A], in data set [1], the inhibition at 4 mg/kg amounted to 60.2% and the “Maximum Aggregation Rate” value worked out at 28.4 ± 6.4 %. In data set [2], the inhibition at 4 mg/kg came to 52.3% and the “Maximum Aggregation Rate” value worked out at 15.7 ± 6.31 %. The treatment time window entry in data set [3] (after ischemia (2 h ischemia then reperfusion)) was “not less than 6 h”. For the same compound, in data set [3] (setting [5]), the “Score of Symptoms of Neurological Deficits” value stood at 2.04 ± 0.12 and the Infarction area is reported as 23.56 ± 2.86 %. In data set [3] (setting [6]), the “Score of Symptoms of Neurological Deficits” value amounted to 2.13 ± 0.14 and the Infarction area came to 24.54 ± 2.53 %. Moreover, in data set [3] (setting [7]), the “Score of Symptoms of Neurological Deficits” value came out at 2.42 ± 0.17 and the Infarction area is reported as 32.43 ± 2.13%. In data set [4], the “Cerebral Infarction Area” value is 18.6 ± 2.65 and the inhibition in vivo at 4 mg/kg was determined as 49.3%. For the same compound, in the data set on SD rats, the tolerance was 20 mg/kg and the toxic side effects entry is recorded as “no obvious toxic side effects”.
In the case of `COc1cc(CCC(=O)O[C@H]2C[C@H]3CC[C@]2(C)C3(C)C)cc(OC)c1O` [Compound C], in data set [1], the inhibition at 4 mg/kg was determined as 52.9% and the “Maximum Aggregation Rate” value was found to be 33.6 ± 7.9 %. In addition, in data set [2], the inhibition at 4 mg/kg was determined as 56.5% and the “Maximum Aggregation Rate” value is listed as 14.3 ± 5.64 %. Further, in data set [4], the “Cerebral Infarction Area” value is 19.6 ± 5.38 and the inhibition in vivo at 4 mg/kg stood at 46.6%. For the same compound, in the data set on SD rats, the tolerance is recorded as 20 mg/kg and the toxic side effects result is on record as “no obvious toxic side effects”.
